Experimental data: patent US6232070A, “Pharmacological targeting of mRNA cap formation” (priority 1999, dated 2001)

How the values were obtained:
Mce1(1-210)p = molecular target: T1, Mce1(1-210)p (Mus musculus, UniProt O55236); details: at 0.5 mM divalent cation; 50 mM Tris buffer; cited from earlier work
T1 construct: The N-terminal portion of Mce1p from residues 1-210 is an autonomous RNA triphosphatase domain; made in house; host or cells: bacteria
T1 sequence (O55236 1-210): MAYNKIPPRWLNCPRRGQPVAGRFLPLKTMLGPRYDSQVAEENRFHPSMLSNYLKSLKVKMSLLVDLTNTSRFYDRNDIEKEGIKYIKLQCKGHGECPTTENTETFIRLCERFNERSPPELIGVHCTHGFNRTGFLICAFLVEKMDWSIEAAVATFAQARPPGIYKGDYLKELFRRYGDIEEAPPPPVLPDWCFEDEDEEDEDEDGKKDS

Hcm1p = molecular target: T2, Hcm1p (Homo sapiens, UniProt O43148); assay: Cap methyltransferase activity of recombinant Hcm1p, methylation of cap-labeled poly(A); type: biochemical
T2 construct: Δ120 retained 50% of the activity of full-length Hcm1p; His-tag (histidine-rich leader segment, pET16b) (N); made in house; host or cells: Escherichia coli BL21(DE3)

LEF-4 = LEF-4 (Autographa californica nuclear polyhedrosis virus, UniProt P41477); details: reported value; read-out: Km for ATP; cited from earlier work
vaccinia triphosphatase = vaccinia triphosphatase (Vaccinia virus, UniProt P04298); details: reported value; read-out: Km for ATP; cited from earlier work

T2 sequence (O43148 whole entry): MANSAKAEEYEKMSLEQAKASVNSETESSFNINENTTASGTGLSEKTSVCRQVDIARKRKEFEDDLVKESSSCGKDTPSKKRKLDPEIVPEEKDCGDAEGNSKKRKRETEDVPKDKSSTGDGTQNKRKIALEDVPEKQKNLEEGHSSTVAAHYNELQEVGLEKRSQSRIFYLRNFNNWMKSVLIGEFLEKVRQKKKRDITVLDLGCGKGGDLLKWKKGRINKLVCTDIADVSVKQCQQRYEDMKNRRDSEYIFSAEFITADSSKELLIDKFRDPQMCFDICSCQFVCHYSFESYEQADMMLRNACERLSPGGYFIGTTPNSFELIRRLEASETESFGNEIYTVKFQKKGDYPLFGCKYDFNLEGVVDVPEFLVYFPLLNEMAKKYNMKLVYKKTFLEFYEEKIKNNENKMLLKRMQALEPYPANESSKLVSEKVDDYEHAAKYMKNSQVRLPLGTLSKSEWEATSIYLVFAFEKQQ
LEF-4, sequence (P41477 whole entry): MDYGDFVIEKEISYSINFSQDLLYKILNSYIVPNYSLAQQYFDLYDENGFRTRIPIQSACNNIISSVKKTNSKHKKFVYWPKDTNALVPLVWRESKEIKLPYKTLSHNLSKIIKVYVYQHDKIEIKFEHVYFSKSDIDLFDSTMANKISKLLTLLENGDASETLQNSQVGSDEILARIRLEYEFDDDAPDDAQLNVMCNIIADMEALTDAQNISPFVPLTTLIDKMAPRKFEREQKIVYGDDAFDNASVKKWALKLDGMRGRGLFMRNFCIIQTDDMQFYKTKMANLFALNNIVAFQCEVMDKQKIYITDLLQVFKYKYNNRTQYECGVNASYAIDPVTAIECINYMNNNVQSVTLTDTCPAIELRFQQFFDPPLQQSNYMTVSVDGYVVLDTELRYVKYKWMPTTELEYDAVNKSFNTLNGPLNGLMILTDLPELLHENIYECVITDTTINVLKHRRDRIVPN

For `[Cl][Mn][Cl]` [MnCl2], which “inhibition of RNA triphosphatase activity” value (Mce1(1-210)p) is on record?
Its value is 75%.

With `[Cl-].[Cl-].[Mg+2]` [MgCl2] as the compound, how does the reduction of methylation (Hcm1p; 1 mM magnesium) read?
The reduction of methylation was “an order of magnitude”.

And the “inhibition of RNA triphosphatase activity” value (Mce1(1-210)p)?
Its value is 75%.

What does the source list for `Nc1ncnc2c1ncn2[C@@H]1O[C@H](COP(=O)(O)OP(=O)(O)OP(=O)(O)O)[C@@H](O)[C@H]1O` [ATP]?
Km (LEF-4): 43 µM; Km (vaccinia triphosphatase): 800 µM

With `C[S+](CC[C@H](N)C(=O)O)C[C@H]1O[C@@H](n2cnc3c(N)ncnc32)[C@H](O)[C@@H]1O` (stereo partly shown) [AdoMet, S-adenosylmethionine] as the compound, how does the Km (Hcm1p; read-out: AdoMet concentration giving half-maximal activity, cap methylation as a function of AdoMet concentration) read?
The Km was about 25 µM.

Which “effect on cap methylation in the presence of AdoMet” value (Hcm1p; 500 μM AdoHcy plus 50 μM AdoMet (FIG. 9, lane 4)) does the source give for `Nc1ncnc2c1ncn2[C@@H]1O[C@H](CSCC[C@H](N)C(=O)O)[C@@H](O)[C@H]1O` [AdoHcy, S-adenosylhomocysteine] here?
Its value is “partially inhibitory”.
